In the assay the test system is bentgrass. The assay is described as follows: Seed treatment of bentgrass: ground coverage by emerged plants. The format is in vivo. Conditions: 20 g a.i./100 kg seed, greenhouse, humid conditions, 7 days after planting, untreated 10.8%. The text has this:
Seeds of bentgrass were seed-treated with the products and concentrations listed. Triticonazol and Pyraclstrobin were used as 200 g/l FS-formulation. Metalaxyl als a 17.7% LS-formulation. Treated sees were planted at the day of treatment and then kept under humid conditions in the greenhouse. 7 days after plating the ground coverage by emerged plants were estimated in percentage.

`COCC(=O)N(c1c(C)cccc1C)[C@H](C)C(=O)OC` [Metalaxyl-M, metalaxyl-M]: the “% covered ground” value was found to be 36.3%.

Values taken from patent publication US8664160B2, “Fungicidal mixtures” (BASF SE, priority 2005, dated 2014).
